Test results from patent US20100144733A1, “Compounds, compositions and methods comprising heteroaromatic derivatives” (Institute for OneWorld Health, priority 2008, published 2010).

Assays:
CFTR = target: T1, CFTR (Homo sapiens, UniProt P13569); experiment: T84 assay (FLIPR membrane potential dye, forskolin/IBMX-stimulated CFTR channel activity); type: cell-based; details: imidazole and triazole-containing compounds (Tables 13, 14, 14′), read-out: IC50 (μM) (T84 assay)
T1 construct: endogenous in cells; host or cells: T84 human colonic cells (ECACC)
Summary of the method: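 Fluorescence from a membrane potential dye in T84 monolayers (HBSS with 10 mM Hepes) is followed each second for 150 s. Cells are exposed to test compound during the 45 min dye loading, then challenged with forskolin (10 μM) and IBMX (100 μM) to open CFTR. Inhibitors suppress the depolarization-driven fluorescence increase.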

CHO-CFTR cell line = target: T2, CHO-CFTR cell line (Homo sapiens, UniProt P13569); experiment: CHO-CFTR assay (FLIPR assay, same conditions as the T84 assay); type: cell-based; details: imidazole and triazole-containing compounds
T2 construct: expressed in transfected cells; host or cells: CHO (CHO-CFTR cell line)
T2 sequence (P13569 whole entry): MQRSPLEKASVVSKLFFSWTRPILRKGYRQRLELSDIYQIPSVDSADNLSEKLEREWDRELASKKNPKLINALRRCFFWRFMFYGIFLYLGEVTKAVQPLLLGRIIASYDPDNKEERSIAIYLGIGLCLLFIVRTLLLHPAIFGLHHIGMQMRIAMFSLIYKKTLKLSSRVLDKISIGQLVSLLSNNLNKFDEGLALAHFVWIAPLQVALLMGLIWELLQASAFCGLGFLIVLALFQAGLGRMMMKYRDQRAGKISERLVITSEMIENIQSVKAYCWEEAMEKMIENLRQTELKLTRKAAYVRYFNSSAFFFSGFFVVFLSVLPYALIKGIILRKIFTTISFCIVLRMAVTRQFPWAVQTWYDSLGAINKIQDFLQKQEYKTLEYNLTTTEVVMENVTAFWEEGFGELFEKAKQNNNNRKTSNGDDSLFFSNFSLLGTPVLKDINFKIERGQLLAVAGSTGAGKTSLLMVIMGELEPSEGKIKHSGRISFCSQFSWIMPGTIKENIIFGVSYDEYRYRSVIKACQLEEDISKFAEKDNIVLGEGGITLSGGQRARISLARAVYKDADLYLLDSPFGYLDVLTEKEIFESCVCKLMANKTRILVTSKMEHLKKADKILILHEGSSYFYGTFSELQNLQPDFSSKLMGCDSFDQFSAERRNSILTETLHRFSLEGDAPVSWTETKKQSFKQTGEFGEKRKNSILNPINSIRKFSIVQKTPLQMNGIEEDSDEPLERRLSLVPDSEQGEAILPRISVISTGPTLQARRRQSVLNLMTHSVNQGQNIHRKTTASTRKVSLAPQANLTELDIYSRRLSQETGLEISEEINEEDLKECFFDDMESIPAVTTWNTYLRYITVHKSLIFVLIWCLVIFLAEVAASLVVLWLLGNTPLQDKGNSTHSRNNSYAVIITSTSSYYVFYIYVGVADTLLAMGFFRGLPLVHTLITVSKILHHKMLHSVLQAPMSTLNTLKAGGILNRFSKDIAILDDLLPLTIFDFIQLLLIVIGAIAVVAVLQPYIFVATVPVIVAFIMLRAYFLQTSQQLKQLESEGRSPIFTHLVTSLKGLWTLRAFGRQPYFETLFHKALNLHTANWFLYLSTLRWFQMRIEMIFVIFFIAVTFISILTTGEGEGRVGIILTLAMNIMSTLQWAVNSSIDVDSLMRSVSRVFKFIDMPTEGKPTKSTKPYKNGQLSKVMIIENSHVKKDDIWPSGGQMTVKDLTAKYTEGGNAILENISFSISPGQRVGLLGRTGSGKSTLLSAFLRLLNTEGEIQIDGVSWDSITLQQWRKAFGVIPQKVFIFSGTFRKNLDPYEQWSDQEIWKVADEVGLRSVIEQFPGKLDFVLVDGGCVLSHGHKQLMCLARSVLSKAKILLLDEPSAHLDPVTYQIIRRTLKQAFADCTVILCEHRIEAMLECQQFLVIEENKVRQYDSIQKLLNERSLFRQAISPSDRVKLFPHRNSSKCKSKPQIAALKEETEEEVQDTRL

T1 sequence (P13569 whole entry): as above

Row | IC50 (CFTR) [µM] | IC50 (CHO-CFTR cell line) [µM] | Compound
1 | 4.4 | 13.3 | O=C(c1ncn(-c2cc(Cl)c(O)c(Cl)c2)n1)N(Cc1ccccc1)Cc1ccc(Oc2ccccc2)cc1 [80i, N-benzyl-1-(3,5-dichloro-4-hydroxyphenyl)-N-(4-phenoxybenzyl)-1H-1,2,4-triazole-3-carboxamide]
2 | 1.26 | 16.5 | CC(C)c1ccc(CN(Cc2ccccc2)C(=O)c2ncn(-c3cc(Cl)c(O)c(Cl)c3)n2)cc1 [81i, N-benzyl-1-(3,5-dichloro-4-hydroxyphenyl)-N-(4-isopropylbenzyl)-1H-1,2,4-triazole-3-carboxamide]
3 | 1.6 | 19.7 | CC(C)(C)c1ccc(CN(Cc2ccccc2)C(=O)c2ncn(-c3cc(Cl)c(O)c(Cl)c3)n2)cc1 [82i, N-benzyl-N-(4-tert-butylbenzyl)-1-(3,5-dichloro-4-hydroxyphenyl)-1H-1,2,4-triazole-3-carboxamide]
4 | 3.22 | 14.3 | O=C(c1ncn(-c2cc(Cl)c(O)c(Cl)c2)n1)N(Cc1ccccc1)Cc1ccc(Cl)c(Cl)c1 [83i, N-benzyl-1-(3,5-dichloro-4-hydroxyphenyl)-N-(3,4-dichlorobenzyl)-1H-1,2,4-triazole-3-carboxamide]
5 | 1.81 | 28.9 | CCN(Cc1ccc(Oc2ccccc2)cc1)C(=O)c1ncn(-c2cc(Cl)c(O)c(Cl)c2)n1 [86i, 1-(3,5-dichloro-4-hydroxyphenyl)-N-ethyl-N-(4-phenoxybenzyl)-1H-1,2,4-triazole-3-carboxamide]
6 | 1.23 | 20.6 | CCN(Cc1ccc(C(C)C)cc1)C(=O)c1ncn(-c2cc(Cl)c(O)c(Cl)c2)n1 [87i, 1-(3,5-dichloro-4-hydroxyphenyl)-N-ethyl-N-(4-isopropylbenzyl)-1H-1,2,4-triazole-3-carboxamide]
7 | 0.75 | 6.58 | CCN(Cc1ccc(C(C)(C)C)cc1)C(=O)c1ncn(-c2cc(Cl)c(O)c(Cl)c2)n1 [88i, N-(4-tert-butylbenzyl)-1-(3,5-dichloro-4-hydroxyphenyl)-N-ethyl-1H-1,2,4-triazole-3-carboxamide]
8 | 3.34 | 24.6 | CCN(Cc1cccc(OC(F)(F)F)c1)C(=O)c1ncn(-c2cc(Cl)c(O)c(Cl)c2)n1 [89i, 1-(3,5-dichloro-4-hydroxyphenyl)-N-ethyl-N-(3-(trifluoromethoxy)benzyl)-1H-1,2,4-triazole-3-carboxamide]
9 | 5.98 | 15.9 | CCN(Cc1cccc(C(F)(F)F)c1)C(=O)c1ncn(-c2cc(Cl)c(O)c(Cl)c2)n1 [90i, 1-(3,5-dichloro-4-hydroxyphenyl)-N-ethyl-N-(3-(trifluoromethyl)benzyl)-1H-1,2,4-triazole-3-carboxamide]
10 | 2.89 | 20.6 | O=C(c1ncn(-c2cc(Cl)c(O)c(Cl)c2)n1)N(Cc1ccc(Oc2ccccc2)cc1)Cc1cccnc1 [91i, 1-(3,5-dichloro-4-hydroxyphenyl)-N-(4-phenoxybenzyl)-N-(pyridin-3-ylmethyl)-1H-1,2,4-triazole-3-carboxamide]
11 | 1.47 | 8.57 | CC(C)c1ccc(CN(Cc2cccnc2)C(=O)c2ncn(-c3cc(Cl)c(O)c(Cl)c3)n2)cc1 [92i, 1-(3,5-dichloro-4-hydroxyphenyl)-N-(4-isopropylbenzyl)-N-(pyridin-3-ylmethyl)-1H-1,2,4-triazole-3-carboxamide]
12 | 1.19 | 4.67 | CC(C)(C)c1ccc(CN(Cc2cccnc2)C(=O)c2ncn(-c3cc(Cl)c(O)c(Cl)c3)n2)cc1 [93i, N-(4-tert-butylbenzyl)-1-(3,5-dichloro-4-hydroxyphenyl)-N-(pyridin-3-ylmethyl)-1H-1,2,4-triazole-3-carboxamide]
13 | 6.95 | 21.1 | O=C(c1ncn(-c2cc(Cl)c(O)c(Cl)c2)n1)N(Cc1cccnc1)Cc1cccc(C(F)(F)F)c1 [94i, 1-(3,5-dichloro-4-hydroxyphenyl)-N-(pyridin-3-ylmethyl)-N-(3-(trifluoromethyl)benzyl)-1H-1,2,4-triazole-3-carboxamide]
14 | 2.63 | 18.9 | CC(C)N(Cc1ccc(Oc2ccccc2)cc1)C(=O)c1ncn(-c2cc(Cl)c(O)c(Cl)c2)n1 [95i, 1-(3,5-dichloro-4-hydroxyphenyl)-N-isopropyl-N-(4-phenoxybenzyl)-1H-1,2,4-triazole-3-carboxamide]
15 | 2.53 | 22.1 | CC(C)c1ccc(CN(C(=O)c2ncn(-c3cc(Cl)c(O)c(Cl)c3)n2)C(C)C)cc1 [96i, 1-(3,5-dichloro-4-hydroxyphenyl)-N-isopropyl-N-(4-isopropylbenzyl)-1H-1,2,4-triazole-3-carboxamide]
16 | 1.23 | 35.5 | CC(C)N(Cc1ccc(C(C)(C)C)cc1)C(=O)c1ncn(-c2cc(Cl)c(O)c(Cl)c2)n1 [97i]

Row | IC50 (CFTR) [µM] | IC50 (CHO-CFTR cell line) [µM] | Compound
17 | 8.13 | 8.39 | CC(C)N(Cc1ccc(Cl)c(Cl)c1)C(=O)c1ncn(-c2cc(Cl)c(O)c(Cl)c2)n1 [98i, 1-(3,5-dichloro-4-hydroxyphenyl)-N-(3,4-dichlorobenzyl)-N-isopropyl-1H-1,2,4-triazole-3-carboxamide]
18 | 7.93 | 12 | CC(C)N(Cc1cccc(OC(F)(F)F)c1)C(=O)c1ncn(-c2cc(Cl)c(O)c(Cl)c2)n1 [99i, 1-(3,5-dichloro-4-hydroxyphenyl)-N-isopropyl-N-(3-(trifluoromethoxy)benzyl)-1H-1,2,4-triazole-3-carboxamide]
19 | 1.85 | 9.09 | C=CCN(Cc1ccc(Oc2ccccc2)cc1)C(=O)c1ncn(-c2cc(Cl)c(O)c(Cl)c2)n1 [100i, N-allyl-1-(3,5-dichloro-4-hydroxyphenyl)-N-(4-phenoxybenzyl)-1H-1,2,4-triazole-3-carboxamide]
20 | 1.85 | 2.69 | C=CCN(Cc1ccc(Cl)c(Cl)c1)C(=O)c1ncn(-c2cc(Cl)c(O)c(Cl)c2)n1 [102i, N-allyl-1-(3,5-dichloro-4-hydroxyphenyl)-N-(3,4-dichlorobenzyl)-1H-1,2,4-triazole-3-carboxamide]
21 | 2.53 | 32.9 | C=CCN(Cc1cccc(OC(F)(F)F)c1)C(=O)c1ncn(-c2cc(Cl)c(O)c(Cl)c2)n1 [103i, N-allyl-1-(3,5-dichloro-4-hydroxyphenyl)-N-(3-(trifluoromethoxy)benzyl)-1H-1,2,4-triazole-3-carboxamide]
22 | 5.83 | 41.9 | C=CCN(Cc1cccc(C(F)(F)F)c1)C(=O)c1ncn(-c2cc(Cl)c(O)c(Cl)c2)n1 [104i, N-allyl-1-(3,5-dichloro-4-hydroxyphenyl)-N-(3-(trifluoromethyl)benzyl)-1H-1,2,4-triazole-3-carboxamide]
23 | 3.64 | 11.3 | CC(C)(C)CCN(Cc1ccc(Oc2ccccc2)cc1)C(=O)c1ncn(-c2cc(Cl)c(O)c(Cl)c2)n1 [105i, 1-(3,5-dichloro-4-hydroxyphenyl)-N-(3,3-dimethylbutyl)-N-(4-phenoxybenzyl)-1H-1,2,4-triazole-3-carboxamide]
24 | 1.8 | 13.1 | CC(C)(C)CCN(Cc1ccc(C(C)(C)C)cc1)C(=O)c1ncn(-c2cc(Cl)c(O)c(Cl)c2)n1 [106i, N-(4-tert-butylbenzyl)-1-(3,5-dichloro-4-hydroxyphenyl)-N-(3,3-dimethylbutyl)-1H-1,2,4-triazole-3-carboxamide]
25 | 1.73 | 26.9 | CC(C)(C)CCN(Cc1ccc(Cl)c(Cl)c1)C(=O)c1ncn(-c2cc(Cl)c(O)c(Cl)c2)n1 [107i, 1-(3,5-dichloro-4-hydroxyphenyl)-N-(3,4-dichlorobenzyl)-N-(3,3-dimethylbutyl)-1H-1,2,4-triazole-3-carboxamide]
26 | 2.99 | 4.08 | CCN(Cc1ccc(Cl)c(Cl)c1)C(=O)c1ncn(-c2cc(Cl)c(O)c(Cl)c2)n1 [108i, 1-(3,5-dichloro-4-hydroxyphenyl)-N-(3,4-dichlorobenzyl)-N-ethyl-1H-1,2,4-triazole-3-carboxamide]
27 | 3.06 | 10.2 | O=C(c1ncn(-c2cc(Cl)c(O)c(Cl)c2)n1)N(Cc1cccnc1)Cc1ccc(Cl)c(Cl)c1 [109i, 1-(3,5-dichloro-4-hydroxyphenyl)-N-(3,4-dichlorobenzyl)-N-(pyridin-3-ylmethyl)-1H-1,2,4-triazole-3-carboxamide]
28 | 4.48 | 7.8 | O=C(c1ncn(-c2cc(Cl)c(O)c(Cl)c2)n1)N(Cc1cccnc1)Cc1cccc(OC(F)(F)F)c1 [110i, 1-(3,5-dichloro-4-hydroxyphenyl)-N-(pyridin-3-ylmethyl)-N-(3-(trifluoromethoxy)benzyl)-1H-1,2,4-triazole-3-carboxamide]
29 | 12.5 | 26.1 | COCCOCCOCCOCCN(Cc1ccc(Oc2ccccc2)cc1)C(=O)c1ncn(-c2cc(Cl)c(O)c(Cl)c2)n1 [112i, 1-(3,5-dichloro-4-hydroxyphenyl)-N-(4-phenoxybenzyl)-N-(2,5,8,11-tetraoxatridecan-13-yl)-1H-1,2,4-triazole-3-carboxamide]
30 | 6.63 | 22.7 | COCCOCCOCCN(Cc1ccc(Cl)c(Cl)c1)C(=O)c1ncn(-c2cc(Cl)c(O)c(Cl)c2)n1 [114i, 1-(3,5-dichloro-4-hydroxyphenyl)-N-(3,4-dichlorobenzyl)-N-(2-(2-(2-methoxyethoxy)ethoxy)ethyl)-1H-1,2,4-triazole-3-carboxamide]
31 | 5.11 | 11.5 | COCCOCCOCCN(Cc1ccc(Oc2ccccc2)cc1)C(=O)c1ncn(-c2cc(Cl)c(O)c(Cl)c2)n1 [119i, 1-(3,5-dichloro-4-hydroxyphenyl)-N-(2-(2-(2-methoxyethoxy)ethoxy)ethyl)-N-(4-phenoxybenzyl)-1H-1,2,4-triazole-3-carboxamide]
32 | 8.22 | 6.03 | CON(Cc1cccc(C(F)(F)F)c1)C(=O)c1ncn(-c2cc(Cl)c(O)c(Cl)c2)n1 [124i, 1-(3,5-dichloro-4-hydroxyphenyl)-N-methoxy-N-(3-(trifluoromethyl)benzyl)-1H-1,2,4-triazole-3-carboxamide]
